Literature values, collected in patent publication US20140170075A1, “NON-INVASIVE IMAGING METHODS FOR PATIENT SELECTION FOR TREATMENT WITH NANOPARTICULATE THERAPEUTIC AGENTS” (Merrirnack Pharmaceuticals, Inc., priority 2012, published 2014).

System: cancer cell proliferation
Details: more active than irinotecan

Compound: CCc1c2c(nc3ccc(O)cc13)-c1cc3c(c(=O)n1C2)COC(=O)[C@]3(O)CC [SN-38]
- activity as an inhibitor of cancer cell proliferation relative to irinotecan: 100-1000 ×
